Where two headings read alike, the source gives them in different places.
How the values were obtained:
[1] = tested on: HMPV clinical isolate TN/1501/A1; test: HMPV antiviral assay Method-B (clinical isolate TN/1501/A1 in LLC-MK2 cells, ATP-Lite readout); type: cell-based, Human metapneumovirus (HMPV); details: human metapneumovirus, LLC-MK2, 144 h, hMPV WT1501 (clinical isolate TN/1501/A1), 6 days
How it was run: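 LLC-MK2 cells infected in suspension with TN/1501/A1 at MOI 0.014 in serum-free medium with 2 μg/mL TPCK-trypsin (final), incubated 6 days at 37° C. Compounds tested in duplicate, 10-point 3-fold dilutions from 10 μM. Cell health read by ATP-Lite luminescence, normalised to virus-only and cells-only controls; EC50 by four-parameter logistic fit.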

[2] = tested on: genotype A, "Long" strain RSV; test: RSV-A assay (CPE protection in Hep-2 cells, ATPlite readout); type: cell-based, Human respiratory syncytial virus (HRSV); details: human respiratory syncytial virus, MOI 0.1, CPE protection
How it was run: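 Protection from RSV-induced cytopathic effect measured by ATP content (ATPlite) after 5-day culture. Infection used genotype A Long virus at MOI 0.1 on 8,000 Hep-2 cells per well, with compound serially diluted 2-fold; values are EC50.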

[3] = genotype A “Long” strain RSV, read-out: Human RSV-A (“Long”)
[4] = RSV-A Long strain, read-out: Human RSV-A (“Long”) EC50

Row | EC50 [1] [nM] | EC50 [2, 3] [nM] | EC50 [2, 4] [nM] | Compound
1 | < 500 | < 200 | – | Cc1cnc2c(Cl)cc(C(=O)NC[C@](O)(c3cc4c(c(-c5ccc(F)c(F)c5Cl)n3)OC[C@]4(C)C(N)=O)C(F)(F)F)cc2c1 [Example 779]
2 | > 500 | < 200 | – | [2H]C([2H])([2H])[C@](O)(CNC(=O)c1cc(OC2CC2)c2ncccc2c1)c1cc2c(c(-c3ccc(F)cc3)n1)OC[C@]2(C)C(N)=O [Example 646]
3 | < 500 | – | < 200 | COc1cc(C(=O)NC[C@](O)(c2cc3c(c(-c4csc(C(F)(F)F)n4)n2)OC[C@]3(C)C(N)=O)C(F)(F)F)cc2cn(C3CC3)nc12 [Example 951]
4 | < 500 | < 200 | – | COc1cc(C(=O)NC[C@](O)(c2cc3c(c(-c4cc(Cl)c(F)cc4F)n2)OC[C@]3(C)C(N)=O)C(F)(F)F)cc2cc(Cl)c(C)nc12 [Example 620]
5 | < 500 | – | < 200 | COc1cc(C(=O)NC[C@](O)(c2cc3c(c(-c4cc(F)c(Cl)cc4F)n2)OC[C@]3(C)C(N)=O)C2CC2)cc2cn(C3CC3)nc12 [Example 1177]
6 | < 500 | – | < 200 | COc1cc(C(=O)NC[C@](O)(c2cc3c(c(-c4ccc(F)c(Cl)c4)n2)OC[C@]3(CF)C(N)=O)C(F)(F)F)ccc1OC1CC1 [Example 1049]
7 | < 500 | < 200 | – | COc1cc(C(=O)NC[C@](O)(c2cc3c(c(-c4ccc(F)cc4)n2)OC[C@]3(C)C(N)=O)C(F)(F)F)cc2cn(C3(F)CC3)nc12 [Example 820]
8 | > 500 | – | < 200 | C[C@@H](O)COc1ccc(C(=O)NC[C@](O)(c2cc3c(c(-c4ccc5c(c4)OC(F)(F)O5)n2)OC[C@]3(C)C(N)=O)C2CC2)cc1OC1CC1 [Example 829]
9 | > 500 | < 200 | – | C[C@]1(C(N)=O)COc2c1cc([C@@](O)(CNC(=O)c1ccc(OC3CC3)c3nccn13)C(F)(F)F)nc2-c1ccc(F)cc1 [Example 702]
10 | > 500 | – | < 200 | COc1cc(C(=O)NC[C@](O)(c2nc(-c3ccc(F)cc3)c3c(c2F)[C@](C)(C(N)=O)CO3)C(F)(F)F)cc2cn(C3CC3)nc12 [Example 850]
11 | < 500 | – | < 200 | Cc1nc2c(Cl)cc(C(=O)NC[C@](O)(c3cc4c(c(-c5ccc(F)c(F)c5Cl)n3)OC[C@]4(C)C(N)=O)C3CC3)cc2cc1Cl [Example 1186]
12 | < 500 | – | < 200 | CNC(=O)[C@@]1(C)COc2c1cc([C@@](O)(CNC(=O)c1cc(OC)c3nn(C(F)F)cc3c1)C(F)(F)F)nc2-c1ccc(F)cc1 [Example 1191]
13 | > 500 | – | > 200 | COc1cc(C(=O)NC[C@](O)(c2cc3c(c(-c4ccc(F)cc4)n2)OC[C@]3(C)C(N)=O)C(F)(F)F)cc2cc(Cl)c(Cl)nc12 [Example 1104]
14 | > 500 | – | > 200 | COc1cc(C(=O)NC[C@](O)(c2cc3c(c(-c4ccc5c(c4)OC(F)(F)O5)n2)OC[C@]3(C(N)=O)C(F)F)C2CC2)cc2cn(C3CC3)nc12 [Example 1010]
15 | < 500 | < 200 | – | COc1cc(C(=O)NC[C@](O)(c2cc3c(c(-c4ccc(F)cc4Cl)n2)OC[C@]3(C)C(N)=O)C(F)(F)F)cc2cc(Cl)c(C)nc12 [Example 509]
16 | < 500 | – | < 200 | Cc1cnc2c(OC(F)F)cc(C(=O)NC[C@](O)(c3cc4c(c(-c5cc(F)c(Cl)cc5F)n3)OC[C@]4(C)C(N)=O)C3CC3)cc2c1 [Example 1183]
17 | < 500 | – | < 200 | COc1cc(C(=O)NC[C@](O)(c2cc3c(c(-c4cc(F)c(Cl)cc4F)n2)OC[C@]3(C)C(N)=O)C(F)(F)F)cc2cn(C3CC3)nc12 [Example 932]
18 | > 500 | < 200 | – | COc1cc(C(=O)NC[C@](O)(c2cc3c(c(-c4ccc(F)cc4)n2)OC[C@@H]3C(N)=O)C(F)(F)F)cc2cn(C3CC3)nc12 [Example 653]
19 | < 500 | – | < 200 | Cc1cnc2c(OC(F)F)cc(C(=O)NC[C@](O)(c3cc4c(c(-c5cc(F)c(F)cc5F)n3)OC[C@]4(C)C(N)=O)C(F)(F)F)cc2c1 [Example 1142]
20 | > 500 | < 200 | – | C[C@]1(C(N)=O)COc2c1cc([C@@](O)(CNC(=O)c1cc(Cl)c3nn(C4CC4)cc3c1)C(F)(F)F)nc2-c1cc(Cl)c(F)c(Cl)c1 [Example 673]
21 | > 500 | < 200 | – | Cc1nc2c(Cl)cc(C(=O)NC[C@](O)(c3cc4c(c(-c5ccc(F)cc5)n3)OC[C@]4(C)C(N)=O)C(F)(F)F)cc2[nH]1 [Example 487]
22 | > 500 | – | < 200 | COc1cc(C(=O)NC[C@](O)(c2cc3c(c(-c4csc(C(F)F)c4)n2)OC[C@]3(C)C(N)=O)C(F)(F)F)cc2cn(C3CC3)nc12 [Example 945]
23 | < 500 | < 200 | – | COc1cc(C(=O)NC[C@](O)(c2cc3c(c(-c4csc5c(F)cccc45)n2)OC[C@]3(C)C(N)=O)C2CC2)cc2cn(C3(F)CC3)nc12 [Example 604]

Row | EC50 [1] [nM] | EC50 [2, 3] [nM] | EC50 [2, 4] [nM] | Compound
24 | < 500 | < 200 | – | COc1cc(C(=O)NC[C@](O)(c2cc3c(c(-c4ccc(F)c(F)c4F)n2)OC[C@]3(C)C(N)=O)C2CC2)cc2cn(C3CC3)nc12 [Example 525]
25 | < 500 | < 200 | – | COc1cc(C(=O)NC[C@](O)(c2cc3c(c(-c4ccc(F)c(Cl)c4F)n2)OC[C@]3(C)C(N)=O)C2CC2)cc2cn(C(F)F)nc12 [Example 556]
26 | < 500 | < 200 | – | COc1cc(C(=O)NC[C@](O)(c2cc3c(c(-c4cc(F)c(F)c(Cl)c4)n2)OC[C@]3(C)C(N)=O)C2CC2)cc2cn(C3(F)CC3)nc12 [Example 791]
27 | > 500 | < 200 | – | COc1ccc(C(=O)NC[C@](O)(c2cc3c(c(-c4ccc(F)c(Cl)c4)n2)OC[C@]3(C)C(N)=O)C(F)(F)F)cc1NC(=O)NC1CC1 [Example 627]
28 | < 500 | – | < 200 | COc1cc(C(=O)NC[C@](O)(c2cc3c(c(-c4cccc(Cl)c4F)n2)OC[C@]3(C)C(N)=O)C(F)(F)F)cc2cn(C3CC3)nc12 [Example 922]
29 | < 500 | – | < 200 | COc1cc(C(=O)NC[C@](O)(c2cc3c(c(-c4c(F)ccc(Cl)c4F)n2)OC[C@]3(C)C(N)=O)C2CC2)cc2cn(C3CC3)nc12 [Example 1163]
30 | < 500 | – | < 200 | C[C@]1(C(N)=O)COc2c1cc([C@@](O)(CNC(=O)c1cc(Cl)c3nn(C(F)F)cc3c1)C1CC1)nc2-c1ccc2c(c1)OC(F)(F)O2 [Example 856]
31 | < 500 | < 200 | – | Cc1nc2c(OC3CC3)cc(C(=O)NC[C@](O)(c3cc4c(c(-c5ccc(F)c(Cl)c5)n3)OC[C@]4(C)C(N)=O)C3CC3)cc2cc1Cl [Example 638]
32 | < 500 | – | < 200 | COc1cc(C(=O)NC[C@](O)(c2cc3c(c(-c4cc(F)c(F)c(F)c4F)n2)OC[C@]3(C)C(N)=O)C(F)(F)F)cc2cn(C3CC3)nc12 [Example 996]
33 | > 500 | – | > 200 | COc1cc(C(=O)NC[C@](O)(c2cc3c(c(-c4ccc(F)cc4)n2)OC[C@@]3(CF)C(N)=O)C2CC2)cc2cn(C(F)F)nc12 [Example 1061]
34 | < 500 | < 200 | – | COc1cc(C(=O)NC[C@](O)(c2cc3c(c(-c4csc5c(F)cccc45)n2)OC[C@]3(C)C(N)=O)C(F)(F)F)cc2cc(Br)cnc12 [Example 602]
35 | < 500 | – | < 200 | COc1cc(C(=O)NC[C@](O)(c2cc3c(c(-c4ccc(OC(F)F)c(F)c4)n2)OC[C@]3(C)C(N)=O)C(F)(F)F)cc2cn(C3CC3)nc12 [Example 920]
36 | < 500 | < 200 | – | Cc1cnc2c(Cl)cc(C(=O)NC[C@](O)(c3cc4c(c(-c5ccc6c(c5)OC(F)(F)O6)n3)OC[C@]4(C)C(N)=O)C3CC3)cc2c1 [Example 539]
37 | < 500 | – | < 200 | COc1cc(C(=O)NC[C@](O)(c2cc3c(c(-c4c(F)cc(F)cc4F)n2)OC[C@]3(C)C(N)=O)C(F)(F)F)cc2cn(C3CC3)nc12 [Example 997]
38 | > 500 | – | < 200 | C[C@]1(C(N)=O)COc2c1cc([C@@](O)(CNC(=O)c1cc(OC3CC3)c3ncc(C#N)cc3c1)C(F)(F)F)nc2-c1ccc(F)cc1 [Example 1133]
39 | > 500 | < 200 | – | COc1ccc(C(=O)NC[C@](O)(c2cc3c(c(-c4ccc5c(c4)OC(F)(F)O5)n2)OC[C@]3(C)C(N)=O)C(F)(F)F)n2ccnc12 [Example 700]
40 | > 500 | < 200 | – | COc1cc(C(=O)NC[C@](O)(c2cc3c(c(-c4cnc(Cl)c(Cl)c4)n2)OC[C@]3(C)C(N)=O)C(F)(F)F)cc2cc(Cl)c(C)nc12 [Example 588]
41 | < 500 | – | < 200 | Cc1cnc2c(OC(F)F)cc(C(=O)NC[C@](O)(c3cc4c(c(-c5ccc(F)cc5)n3)OC[C@]4(CF)C(N)=O)C3CC3)cc2c1 [Example 1058]
42 | < 500 | – | < 200 | COc1cc(C(=O)NC[C@](O)(c2cc3c(c(-c4cc5c(cc4Cl)OC(F)(F)O5)n2)OC[C@]3(C)C(N)=O)C2CC2)cc2cn(C3CC3)nc12 [Example 1231]
43 | < 500 | < 200 | – | Cc1cnc2c(OCC(F)F)cc(C(=O)NC[C@](O)(c3cc4c(c(-c5ccc6c(c5)OC(F)(F)O6)n3)OC[C@]4(C)C(N)=O)C3CC3)cc2c1 [Example 541]
44 | < 500 | – | < 200 | Cc1cnc2c(Cl)cc(C(=O)NC[C@](O)(c3cc4c(c(-c5cc(F)c(F)cc5F)n3)OC[C@]4(C)C(N)=O)C3CC3)cc2c1 [Example 1153]
45 | > 500 | – | > 200 | COc1cc(C(=O)NC[C@](O)(c2cc3c(c(-c4ccc(F)cc4)n2)OC[C@]3(C(N)=O)C2CC2)C(F)(F)F)cc2cc(C3CC3)nn12 [Example 1066]
